The molecules below were run against T1, gamma-secretase (Homo sapiens, UniProt P49768) (assay: Gamma-secretase APP enzyme assay (cleavage of MBP-C125swe substrate, sandwich ELISA)). Conditions: partially purified extract of IMR-32 cell membranes as enzyme, 2 h at 37° C, ELISA detection of cleavage product, read-out: γAPP.
T1 construct: a partially purified extract of IMR-32 cell membranes as the gamma-secretase enzyme preparation; endogenous in cells; host or cells: IMR-32 cell membranes, partially purified extract
Assay type: biochemical
From the text: The gamma-secretase APP enzyme assay was designed to measure the specific proteolytic cleavage of an APP substrate (MBP-C125 Swe fusion protein) at the […] site. The assay used a partially purified extract of IMR-32 cell membranes as the gamma-secretase enzyme preparation and a recombinant fusion protein containing the C-terminal 125 amino acids of the Swedish variant of the APP (MBP-C125swe) as the substrate. This assay involved two steps beginning with the enzymatic reaction generating a cleavage product that was captured with an immobilized antibody specific for the neo-epitope […] site. The captured cleavage product was then detected in a sandwich ELISA assay with a biotinylated reporter antibody that is specific to Aβ (17-28). Streptavidin-linked alkaline phosphatase was then added that would generate a fluorescent signal proportional to the amount of cleavage product. This assay was used to discover small molecule inhibitors of gamma-secretase. Briefly, a 149 mg/ml solution of […] detergent was made with water at 42° C. and then rotated for 30 minutes at the same temperature. […] Louis, Mo.) to a concentration of 8 mg/ml. This solution containing BigCHAPS and lipid at 8 mg/ml is then diluted to 0.53 mg/ml lipid with a pre-warmed solution of Hepes and sodium chloride. This final solution containing Hepes buffer, sodium chloride, BigCHAPS detergent and lipid is used to create working solutions of both gamma-secretase (25 Units) and the MBP-C125 substrate (0.05 mg/ml). Gamma-secretase was then added to a 96-well micro-titre plate and then incubated with various concentrations of inhibitor for 30 minutes at 37° C. MBP-C125 substrate was then added to initiate the reaction that would run for two hours at 37° C. The reaction was quenched with the addition of SDS to a final concentration of 0.1% and then 100 μl of the reaction mixture was transferred to a capture ELISA plate and incubated overnight at 4° C. Detection of the cleavage product was performed using a standard sandwich ELISA assay and quantified using a six point standard curve.

Row | Structure (SMILES) | IC50
1 | O=S(=O)(c1ccc(Br)c(F)c1)N1C2CCCC1CCC2 [9-(4-bromo-3-fluorophenylsulfonyl)-9-azabicyclo[3.3.1]nonane] | 2000 to 5000 nM
2 | O=C1CC2CCCC(C1)N2S(=O)(=O)c1ccc(Cl)cc1 [9-(4-chlorophenylsulfonyl)-9-azabicyclo[3.3.1]nonan-3-one] | < 1000 nM
3 | O=S(=O)(c1ccc(Br)cc1)N1C2CCCC1CCC2 [9-(4-bromophenylsulfonyl)-9-azabicyclo[3.3.1]nonane] | 1000 to 2500 nM
4 | O=S(=O)(c1ccc(Cl)cc1)N1C2CCCC1CN(c1ccccc1)C2 [9-(4-chlorophenylsulfonyl)-3-phenyl-3,9-diazabicyclo[3.3.1]nonane] | 1000 to 2500 nM
5 | O=S(=O)(c1ccc(Cl)cc1)N1C2CCCC1CC(=NO)C2 [9-(4-chlorophenylsulfonyl)-9-azabicyclo[3.3.1]nonan-3-one oxime] | 2000 to 5000 nM
6 | O=S(=O)(c1ccc(Br)cc1)N1C2CCCC1CC2 [8-(4-bromophenylsulfonyl)-8-azabicyclo[3.2.1]octane] | 2000 to 5000 nM
7 | C=C1CC2CCCC(C1)N2S(=O)(=O)c1ccc(Cl)cc1 [9-(4-chlorophenylsulfonyl)-3-methylene-9-azabicyclo[3.3.1]nonane] | < 1000 nM
8 | O=C1NCC2CCCC1N2S(=O)(=O)c1ccc(Cl)cc1 (stereo not shown) [9-(4-chlorophenylsulfonyl)-3,9-diazabicyclo[3.3.1]nonan-2-one] | 2000 to 5000 nM
9 | O=S(=O)(c1ccc(Br)s1)N1C2CCCC1CCC2 [9-(5-bromothiophen-2-ylsulfonyl)-9-azabicyclo[3.3.1]nonane] | 2000 to 5000 nM
10 | O=C1NC(=O)C2CCCC1N2S(=O)(=O)c1ccc(Cl)cc1 [9-[(4-chlorophenyl)sulfonyl]-3,9-diazabicyclo[3.3.1]nonane-2,4-dione] | < 1000 nM
11 | O=S(=O)(c1ccc(Cl)cc1)N1C2CCCC1CC2 [8-(4-chlorophenylsulfonyl)-8-azabicyclo[3.2.1]octane] | 2000 to 5000 nM
12 | CS(=O)(=O)OC1CC2CCCC(C1)N2S(=O)(=O)c1ccc(Cl)cc1 (stereo not shown) [Methanesulfonic acid 9-(4-chloro-benzenesulfonyl)-9-aza-bicyclo[3.3.1]non-3-yl ester] | 1000 to 2500 nM
13 | O=S(=O)(c1ccc(Cl)cc1)N1C2CCCC1CCC2 [9-(4-chlorophenylsulfonyl)-9-azabicyclo[3.3.1]nonane] | 1000 to 2500 nM
14 | CN(C(=O)OC(C)(C)C)C1CC2CCCC(C1)N2S(=O)(=O)c1ccc(Cl)cc1 (stereo not shown) [[9-(4-Chloro-benzenesulfonyl)-9-aza-bicyclo[3.3.1]non-3-yl]-methyl-carbamic acid tert-butyl ester] | < 1000 nM
15 | O=S(=O)(c1ccc(Cl)s1)N1C2CCCC1CCC2 [9-(5-chlorothiophen-2-ylsulfonyl)-9-azabicyclo[3.3.1]nonane] | 2000 to 5000 nM
16 | O=S(=O)(c1ccc(C(F)(F)F)cc1)N1C2CCCC1CCC2 [9-(4-(trifluoromethyl)phenylsulfonyl)-9-azabicyclo[3.3.1]nonane] | 2000 to 5000 nM
17 | O=S(=O)(c1ccc(Cl)cc1)N1C2CCCC1CSC2 [9-(4-chlorophenylsulfonyl)-3-thia-9-azabicyclo[3.3.1]nonane] | < 1000 nM
18 | O=S(=O)(c1ccc(Cl)cc1)N1C2CCCC1COC2 [9-(4-chlorophenylsulfonyl)-3-oxa-9-azabicyclo[3.3.1]nonane] | 2000 to 5000 nM
19 | O=S(=O)(c1ccc(Cl)cc1)N1C2CCCC1CC(O)C2 (stereo not shown) [9-(4-chlorophenylsulfonyl)-9-azabicyclo[3.3.1]nonan-3-ol] | 2000 to 5000 nM

Source: patent US20110178119A1, “Bridged N-Bicyclic Sulfonamido Inhibitors of Gamma Secretase” (ELAN PHARMACEUTICALS, INC., priority 2005, published 2011)
